These compounds were tested on Lone star tick larvae (Amblyomma americanum) (assay: In Vitro Larval Immersion Microassay (LIM)). Settings: read-out: % Efficacy (percent larval mortality).
Method: In Vitro Larval Immersion Microassay (LIM)
The larval immersion microassay may be conducted as described in White, et al., J. Med. Entomol. […] Briefly, experimental test articles are formulated in dimethylsulfoxide (DMSO) to prepare a stock solution at a concentration of 10 mM. […] Approximately 30-50 Lone star tick larvae (Amblyomma americanum) are submerged into each well containing experimental test articles. After a 30 minute immersion period, larvae are removed with a wide-bore pipette tip in 0.05 ml of fluid, dispensed into a commercial paper tissue biopsy bag which is sealed at the top with a plastic dialysis clip, inverted and allowed to air dry for 60 minutes. Bags containing larvae are then incubated at approximately 27 degrees Celsius and >90% relative humidity. After 24 hours, bags are opened, live and dead larvae are counted and percent larval mortality is calculated as follows: % Efficacy=(# dead larvae)/(# total larvae)×100.

Structure (SMILES) | mortality at 300 µM [%]
O=C(NC1CCN(C2CC2)C1=O)c1sc(C2=NOC(c3cc(Cl)c(F)c(Cl)c3)(C(F)(F)F)C2)c2c1CCCC2 (stereo not shown) [Example 84, N-(1-cyclopropyl-2-oxopyrrolidin-3-yl)-3-(5-(3,5-dichloro-4-fluorophenyl)-5-(trifluoromethyl)-4,5-dihydroisoxazol-3-yl)-4,5,6,7-tetra-hydrobenzo[c] thiophene-1-carboxamide] | ≥ 80
O=C1CCC(NC(=O)c2sc(C3=NOC(c4cc(Cl)cc(Cl)c4)(C(F)(F)F)C3)c3c2CCC3)CC1 (stereo not shown) [Example 85, 3-(5-(3,5-dichloro-phenyl)-5-(trifluoro-methyl)-4,5-dihydro-isoxazol-3-yl)-N-(4-oxocyclohexyl)-5,6-dihydro-4H-cyclopenta[c] thiophene-1-carboxamide] | ≥ 80
O=C(NC1CCN(CC(F)(F)F)C1=O)c1sc(C2=NOC(c3cc(Cl)cc(Cl)c3)(C(F)(F)F)C2)c2c1CCC2 (stereo not shown) [Example 86, 3-(5-(3,5-dichloro-phenyl)-5-(trifluoro-methyl)-4,5-dihydro-isoxazol-3-yl)-N-(2-oxo-1-(2,2,2-trifluoroethyl)pyrrolidin-3-yl)-5,6-dihydro-4H-cyclopenta[c] thiophene-1-carboxamide] | ≥ 80
O=C(N[C@@H]1CCNC1=O)c1sc(C2=NO[C@@](c3cc(Cl)cc(Cl)c3)(C(F)(F)F)C2)c2c1CCCC2 [Example 87b, 3-((S)-5-(3,5-dichlorophenyl)-5-(trifluoromethyl)-4,5-dihydroisoxazol-3-yl)-N—((R)-2-oxopyrrolidin-3-yl)-4,5,6,7-tetrahydrobenzo[c]thiophene-1-carboxamide] | ≥ 80
N#CCNC(=O)CNC(=O)c1sc(C2=NOC(c3cc(Cl)cc(Cl)c3)(C(F)(F)F)C2)c2c1CCCC2 (stereo not shown) [Example 94, N-(2-(cyanomethylamino)-2-oxoethyl)-3-(5-(3,5-dichlorophenyl)-5-(trifluoromethyl)-4,5-dihydroisoxazol-3-yl)-4,5,6,7-tetrahydrobenzo[c]thiophene-1-carboxamide] | ≥ 80
C#CCNC(=O)CNC(=O)c1sc(C2=NOC(c3cc(Cl)cc(Cl)c3)(C(F)(F)F)C2)c2c1CCCC2 (stereo not shown) [Example 95, 3-(5-(3,5-dichlorophenyl)-5-(trifluoromethyl)-4,5-dihydroisoxazol-3-yl)-N-(2-oxo-2-(prop-2-ynylamino)ethyl)-4,5,6,7-tetrahydrobenzo [c]thiophene-1-carboxamide] | ≥ 80
FC(F)(F)C1(c2cc(Cl)cc(Cl)c2)CC(c2cc3ccncc3s2)=NO1 (stereo not shown) [Example 230, 2-[5-(3,5-Dichloro-phenyl)-5-tri-fluoromethyl-4,5-dihydro-isoxazol-3-yl]-thieno[2,3-c] pyridine] | ≥ 80
FC(F)(F)C1(c2cc(Cl)cc(Cl)c2)CC(c2cc3cc(Br)cnc3s2)=NO1 (stereo not shown) [Example 231, 5-Bromo-2-[5-(3,5-dichloro-phenyl)-5-trifluoromethyl-4,5-dihydro-isoxazol-3-yl]-thieno[2,3-b]pyridine] | ≥ 80
FC(F)(F)C1(c2cc(Cl)cc(Cl)c2)CC(c2cc3cccnc3s2)=NO1 (stereo not shown) [Example 232, 2-[5-(3,5-Dichloro-phenyl)-5-tri-fluoromethyl-4,5-dihydro-isoxazol-3-yl]-thieno[2,3-b] pyridine] | ≥ 80
FC(F)(F)C1(c2cc(Cl)cc(Cl)c2)CC(c2cc3ccccc3s2)=NO1 (stereo not shown) [Example 233, 3-(benzo[b]thio-phen-2-yl)-5-(3,5-dichlorophenyl)-5-(trifluoromethyl)-4,5-dihydroisoxazole] | ≥ 80
Cc1ccc2sc(C3=NOC(c4cc(Cl)cc(Cl)c4)(C(F)(F)F)C3)cc2c1 (stereo not shown) [Example 236, 5-(3,5-dichloro-phenyl)-3-(5-methyl-benzo[b]thiophen-2-yl)-5-(trifluoro-methyl)-4,5-dihydro-isoxazole] | ≥ 80
FC(F)(F)C1(c2cc(Cl)cc(Cl)c2)CC(c2cc3cc(Cl)ccc3s2)=NO1 (stereo not shown) [Example 237, 3-(5-chlorobenzo [b]thiophen-2-yl)-5-(3,5-dichloro-phenyl)-5-(trifluoro-methyl)-4,5-dihydroisoxazole] | ≥ 80
O=C(CNC(=O)c1cnc2sc(C3=NOC(c4cc(Cl)cc(Cl)c4)(C(F)(F)F)C3)cc2c1)NCC(F)(F)F (stereo not shown) [Example 240, 2-(5-(3,5-dichlorophenyl)-5-(trifluoromethyl)-4,5-dihydroisoxazol-3-yl)-N-(2-oxo-2-(2,2,2-trifluoroethylamino)ethyl)thieno[2,3-b]pyridine-5-carboxamide] | ≥ 80
O=C(N[C@@H]1CCNC1=O)c1cnc2sc(C3=NOC(c4cc(Cl)cc(Cl)c4)(C(F)(F)F)C3)cc2c1 (stereo partly drawn) [Example 241, 2-(5-(3,5-dichloro-phenyl)-5-(trifluoro-methyl)-4,5-dihydro-isoxazol-3-yl)-N-((R)-2-oxopyrrolidin-3-yl)thieno[2,3-b] pyridine-5-carboxamide] | ≥ 80
O=C(CNC(=O)c1sc(C2=NO[C@@](c3cc(Cl)c(F)c(Cl)c3)(C(F)(F)F)C2)c2c1CCC2)NCC(F)(F)F [Example 243, (S)-3-(5-(3,5-dichloro-4-fluorophenyl)-5-(trifluoromethyl)-4,5-dihydroisoxazol-3-yl)-N-(2-oxo-2-(2,2,2-trifluoroethylamino)ethyl)-5,6-dihydro-4H-cyclopenta[c]thiophene-1-carboxamide] | ≥ 80
O=C(CNC(=O)c1sc(C2=NOC(c3cc(Cl)c(F)c(Cl)c3)(C(F)(F)F)C2)c2c1CCC2)NCC(F)F (stereo not shown) [Example 244, 3-[5-(3,5-dichloro-4-fluoro-phenyl)-5-trifluoromethyl-4,5-dihydro-isoxazol-3-yl]-5,6-dihydro-4H-cyclopenta[c]thiophene-1-carboxylic acid [(2,2-difluoro-ethylcarbamoyl)-methyl]-amide] | ≥ 80
O=C(CNC(=O)c1sc(C2=NO[C@@](c3cc(Cl)c(F)c(Cl)c3)(C(F)(F)F)C2)c2c1CCC2)NCC(F)F [Example 245, (S)-3-[5-(3,5-dichloro-4-fluoro-phenyl)-5-trifluoromethyl-4,5-dihydro-isoxazol-3-yl]-5,6-dihydro-4H-cyclopenta[c]thiophene-1-carboxylic acid [(2,2-difluoro-ethylcarbamoyl)-methyl]-amide] | ≥ 80
O=C(CNC(=O)c1sc(C2=NOC(c3cc(Cl)c(F)c(Cl)c3)(C(F)(F)F)C2)c2c1CCC2)NCCF (stereo not shown) [Example 246, 3-[5-(3,5-Dichloro-4-fluoro-phenyl)-5-trifluoromethyl-4,5-dihydro-isoxazol-3-yl]-5,6-dihydro-4H-cyclopenta[c]thiophene-1-carboxylic acid [(2-fluoro-ethylcarbamoyl)-methyl]-amide] | ≥ 80

Same assay, conditions: tested at 300 micromolar, 30 minute immersion, mortality counted after 24 hours, read-out: % Efficacy (percent larval mortality)

Structure (SMILES) | mortality at 300 µM [%]
N#CCNC(=O)CNC(=O)c1sc(C2=NOC(c3sc(Cl)c(Cl)c3Cl)(C(F)(F)F)C2)c2c1CCCC2 (stereo not shown) [Example 96, N-(2-(cyanomethylamino)-2-oxoethyl)-3-(5-(3,4,5-trichlorothiophen-2-yl)-5-(trifluoromethyl)-4,5-dihydroisoxazol-3-yl)-4,5,6,7-tetrahydro-benzo[c]thiophene-1-carboxamide] | ≥ 80
